Reference: publication PMC7997397, ““Bottom-Up” Strategy for the Identification of Novel Soybean Peptides with Angiotensin-Converting Enzyme Inhibitory Activity” (Journal of Agricultural and Food Chemistry, 2020)
Read-outs that look alike come from different tables or passages of the source. Ends that are not written are not given here. Peptide text beside a SMILES is read from it.

Legend:
[1] = biological target: T1, ACE in human kidney HK-2 cells (Homo sapiens, UniProt P12821); assay: ACE activity cell-based assay (in situ) in HK-2 cells; conditions: for IC50: renal HK-2 cells 5 × 10^4/well, 0.1–250 μM, 24 h, 37 °C, ACE activity in cell lysates with fluorescent substrate, mean ± s.d. of three independent experiments in triplicate
T1 construct: endogenous in cells; host or cells: HK-2 cells (ATCC)
T1 sequence (P12821 30-1306): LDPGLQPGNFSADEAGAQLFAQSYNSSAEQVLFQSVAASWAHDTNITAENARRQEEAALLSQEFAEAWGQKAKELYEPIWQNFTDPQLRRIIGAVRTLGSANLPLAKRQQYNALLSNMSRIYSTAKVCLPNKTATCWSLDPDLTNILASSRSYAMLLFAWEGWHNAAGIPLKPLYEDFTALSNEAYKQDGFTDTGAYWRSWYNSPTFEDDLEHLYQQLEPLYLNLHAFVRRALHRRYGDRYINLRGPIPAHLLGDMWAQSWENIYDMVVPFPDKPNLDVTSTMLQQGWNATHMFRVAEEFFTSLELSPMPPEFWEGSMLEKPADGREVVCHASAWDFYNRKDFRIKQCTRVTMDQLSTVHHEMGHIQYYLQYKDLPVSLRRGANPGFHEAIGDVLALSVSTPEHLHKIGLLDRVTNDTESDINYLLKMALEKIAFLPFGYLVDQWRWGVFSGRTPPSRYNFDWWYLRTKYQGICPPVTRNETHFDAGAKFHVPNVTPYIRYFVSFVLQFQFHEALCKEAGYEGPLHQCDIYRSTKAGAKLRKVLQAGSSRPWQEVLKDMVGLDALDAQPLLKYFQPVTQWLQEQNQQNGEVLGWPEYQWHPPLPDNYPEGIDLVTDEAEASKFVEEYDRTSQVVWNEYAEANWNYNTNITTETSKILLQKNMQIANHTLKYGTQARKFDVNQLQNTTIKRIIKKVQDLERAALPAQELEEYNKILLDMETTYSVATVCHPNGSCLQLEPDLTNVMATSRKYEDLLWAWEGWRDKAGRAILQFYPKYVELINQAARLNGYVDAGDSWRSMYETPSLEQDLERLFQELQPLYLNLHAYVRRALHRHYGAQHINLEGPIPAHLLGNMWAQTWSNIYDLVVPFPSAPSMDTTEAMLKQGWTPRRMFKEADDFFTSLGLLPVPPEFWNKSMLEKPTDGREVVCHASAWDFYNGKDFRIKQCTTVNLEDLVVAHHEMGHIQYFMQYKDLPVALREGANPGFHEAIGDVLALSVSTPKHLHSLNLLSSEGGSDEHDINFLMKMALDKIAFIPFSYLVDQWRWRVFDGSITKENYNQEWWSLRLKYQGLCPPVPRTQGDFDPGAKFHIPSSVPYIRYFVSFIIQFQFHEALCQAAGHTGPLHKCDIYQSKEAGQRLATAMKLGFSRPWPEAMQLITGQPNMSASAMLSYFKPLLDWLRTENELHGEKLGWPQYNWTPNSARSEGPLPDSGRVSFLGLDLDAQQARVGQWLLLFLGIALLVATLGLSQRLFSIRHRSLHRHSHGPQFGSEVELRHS
Procedure: (§1) Soy1 and LPYP were tested on Caco-2 and HK2 cells (5 × 10^4/well in black 96-well plates) in 0.1–250.0 μM concentration ranges or vehicle in growth medium for 24 h at 37 °C. For a 2D cell culture on RADA16-Soy1 and RADA-LPYP hydrogels, Caco-2 cells were seeded on the surface of the abovementioned hydrogels at a density of 5 × 10^4/well. On the next day, the ACE inhibitory activity was measured using an ACE1 Activity Assay Kit (BioVision, Milpitas Blvd., Milpitas, CA, USA) following the manufacturer’s protocol. See the “Supporting Information” for further details on Acer activity cell-based assay.
(§2) In particular, Caco-2 and HK-2 cells (5 × 10^4/well) were treated with Soy1 and LPYP (0.1–250 μM) overnight. The following day, cells were lysated and the ACE activity was measured directly in the cell lysates using a fluorescent ACE substrate; in this assay, the fluorescent signal is proportional to the enzyme activity.
(§3) Figure 2 In situ evaluation of the ACE activity. […] Data represent the mean ± s.d. of three independent experiments performed in triplicate. […]
absence of carryover effects. The peptides were identified by comparing their retention times, MS profiles, and MS/MS fragmentation spectra with those of authentic standards.
ACE activity cell-based assay. […] The next day, The ACE inhibitory activity was measured using the ACE1 Activity Assay Kit (Biovision, Milpitas Blvd., Milpitias, CA, USA) following the manufacture’s protocol.
Briefly, cells were scraped in 30.0 μL of ice-cold ACE lysis buffer and transferred in an ice-cold microcentrifuge tube. […] Total proteins were quantified by Bradford method, and 2.0 μg of proteins (the equivalent of 2 μL) were added to 18.0 μL of ACE lysis buffer in each well in a black 96-well plates with clear bottoms. […] Then, 20.0 μL of 4% of ACE substrate (in assay buffer) was added in each well except the background one and the fluorescence (Ex/Em 330/430 nm) was measured in a kinetic mode for 10 min at 37 °C using […]

[2] = biological target: T2, ACE in human intestinal Caco-2 cells (Homo sapiens, UniProt P12821); assay: ACE activity cell-based assay (in situ) in Caco-2 cells; conditions: nondifferentiated Caco-2 cells 5 × 10^4/well, 0.1–250 μM, 24 h, 37 °C; ACE activity in cell lysates with fluorescent substrate; mean ± s.d. of three independent experiments in triplicate
T2 construct: endogenous in cells; host or cells: Caco-2 cells (INSERM, Paris)
T2 sequence (P12821 30-1306): as above
Procedure: as §1, §2, §3
absence of carryover effects. […]
ACE activity cell-based assay. […] The next day, The ACE inhibitory activity was measured using the ACE1 Activity Assay Kit (Biovision, Milpitas Blvd., Milpitias, CA, USA) following the manufacture’s protocol. […]

[3] = In vitro gastrointestinal digestion with pepsin and pancreatin; format: in vitro ADME; conditions: peptide 100 μM; pepsin 1:100 enzyme-to-substrate, pH 2.0, 37 °C, 90 min, then pancreatin 1:50, pH 7.2, 37 °C, 150 min; HPLC-Chip ion trap MS; mean ± s.d. of three independent experiments in triplicate; read-out: degraded after codigestion with pepsin and pancreatin vs undigested peptide
Procedure: Pepsin solution (4 mg/mL in NaCl) was added to Soy1 and LPYP (100 μM) at a 1:100 enzyme-to-substrate ratio (pH 2.0). The digestion was conducted at 37 °C for 90 min under continuous stirring, and then, the pH was adjusted to 7.2 with 1 M NaOH in order to inactivate the enzyme. Then, pancreatin (4 mg/mL in H2O) was added at a 1:50 enzyme-to-substrate ratio. After digestion, at 37 °C for 150 min, the enzyme was inactivated by heating at 95 °C for 10 min. Further details regarding the analysis are available in the “Supporting Information”.
Their metabolic propensity to be degraded by peptidases, which are physiologically active along the entire gastrointestinal tract, might dramatically influence the bioactivity of food peptides. The literature provides many studies dealing with the assessment of food bioactive peptide stability to the simulated gastric digestion.[22],[23] In order to in-depth characterize the multifunctional behavior of Soy1 and LPYP, their stability toward the in vitro gastric digestion was assessed using pepsin and pancreatin.
Figure 1 In vitro gastrointestinal digestion. […]
In vitro digestion of Soy1 and LPYP. […] Soy1 and LPYP samples undigested and after digestion were analyzed on a SL IT mass spectrometer interfaced with a HPLC- Chip Cube source (Agilent Technologies, Palo Alto, CA, USA). […] A blank was analyzed between samples to ensure

ACE = conditions: read-out: IC50 ACE inhibition in vitro, cited from earlier work
Text: It is well-recognized that soybean proteins contain many bioactive peptides exerting multiple health benefits, that is, hypocholesterolemic, antidiabetic, antitumor, and hypotensive activity. […] Moreover, after the hydrolysis of soybean proteins with pepsin, five peptides have been identified showing in vitro and in vivo hypotensive activity. […] Their bl ...

[4] = test system: differentiated Caco-2 cells; conditions: 2 h of incubation in the apical side of monolayers; cited from earlier work
Text: Mature enterocytes represent the first physiological barrier that bioactive food peptides encounter after ingestion; therefore, their absorption is a dynamic proces ...

[5] = peptides from pepsin hydrolysis of soybean proteins
[6] = soybean peptides reported in the literature

## CC(C)C[C@H](N)C(=O)N1CCC[C@H]1C(=O)N[C@@H](Cc1ccc(O)cc1)C(=O)N1CCC[C@H]1C(=O)O [LPYP] (H-LPYP-OH)
[1]
  IC50: 6.8 ± 0.2 µM
[2]
  IC50: 5 ± 0.28 µM
[3]
  metabolised at 4 h, 100 μM: 28.5 ± 1.4%

## FFL
ACE; [5]
  IC50: 37 µM

## IAVPTGVA [Soy1, IAVPTGVA]
[4]
  absorption by differentiated Caco-2 cells: better absorbed than LPYP
[1]; comparison of IC50 values in HK-2 and Caco-2 cells
  relative ACE inhibitory activity, renal (HK-2) vs intestinal (Caco-2) level: twofold more active at the renal level than at the intestinal level
[1]
  IC50: 6 ± 0.35 µM
[2]
  IC50: 14.7 ± 0.28 µM
[3]
  metabolised at 4 h, 100 μM: 27.7 ± 0.3%

## IYLL [peptide from pepsin hydrolysis of soybean proteins]
ACE; [5]
  IC50: 42 µM

## LAIPVNKP
ACE; [6]
  IC50: 70 µM

## LPHF
ACE; [6]
  IC50: 670 µM

## SPYP [peptide from soybean glycinin hydrolysed by Monascus purpureus acid proteinase]
ACE; [6]
  IC50: 850 µM

## VMDKPQG [peptide from pepsin hydrolysis of soybean proteins]
ACE; [5]
  IC50: 39 µM

## YLAGNQ [peptide from pepsin hydrolysis of soybean proteins]
ACE; [5]
  IC50: 14 µM
